In series [1] the test system is Mus musculus. The series can be described thus: Anticonvulsant activity in Swiss albino mouse assessed as inhibition of subcutaneous strychnine-induced seizures at 300 mg/kg, ip administered 30 mins before STY challenge measured after 4 hrs post STY challenge. The format is functional, organism-based. The arrangement: dose 300 mg/kg.
Another series has as its system Rattus norvegicus. The series can be described thus: Anticonvulsant activity in Wistar rat assessed as protection against hyperthermia-induced seizures at 100 mg/kg, ip relative to control. The format is functional. To be noted: route intraperitoneal.
Series [2] has as its system Mus musculus. As to the kind of experiment: Anticonvulsant activity in Swiss albino mouse assessed as inhibition of subcutaneous picrotoxin-induced seizures at 300 mg/kg, ip administered 30 mins before PIC challenge measured after 4 hrs post PIC challenge. Type of series: functional, organism-based. The arrangement: dose 300 mg/kg.
For series [3], the system named is Mus musculus. As to the kind of experiment: Anticonvulsant activity in Swiss albino mouse assessed as inhibition of subcutaneous strychnine-induced seizures at 300 mg/kg, ip administered 30 mins before STY challenge measured after 0.5 hrs post STY challenge. The format is functional, organism-based. Set-up: dose 300 mg/kg.
Series [4] deals with Mus musculus. As to the kind of experiment: Anticonvulsant activity in Swiss albino mouse assessed as inhibition of subcutaneous pentylenetetrazole-induced seizures at 300 mg/kg, ip administered 30 mins before PTZ challenge measured after 4 hrs post PTZ challenge. The format is functional, organism-based. The arrangement: dose 300 mg/kg.
For series [5], the system named is Mus musculus. As to the kind of experiment: Neurotoxicity in ip dosed Swiss albino mouse assessed as inability of animal to maintain equilibrium on the rod for at least 1 min after 0.5 hrs by rotarod test. The format is toxicity, organism-based. To be noted: in vivo. (In the rotarod test animals must keep their balance on a rotating rod.)
In series [6] the test system is Mus musculus. The series can be described thus: Neurotoxicity in ip dosed Swiss albino mouse assessed as inability of animal to maintain equilibrium on the rod for at least 1 min after 4 hrs by rotarod test. The format is toxicity, organism-based. The conditions noted are these: in vivo.
Series [7] deals with Mus musculus. The series can be described thus: Anticonvulsant activity in Swiss albino mouse assessed as inhibition of maximal electroshock-induced seizures at 300 mg/kg, ip administered 30 mins before electroshock measured after 0.5 hrs post electroshock. Type of series: functional, organism-based. Set-up: dose 300 mg/kg. Background: In the maximal electroshock model the usual endpoint is tonic extension of the hind limbs.

Series [8] concerns Mus musculus. The series can be described thus: Anticonvulsant activity in Swiss albino mouse assessed as inhibition of subcutaneous pentylenetetrazole-induced seizures at 300 mg/kg, ip administered 30 mins before PTZ challenge measured after 0.5 hrs post PTZ challenge. Set-up: dose 300 mg/kg. The format is functional, organism-based.
Series [9] relates to Mus musculus. The series can be described thus: Anticonvulsant activity in Swiss albino mouse assessed as inhibition of subcutaneous picrotoxin-induced seizures at 300 mg/kg, ip administered 30 mins before PIC challenge measured after 0.5 hrs post PIC challenge. Type of series: functional, organism-based. Set-up: dose 300 mg/kg.
Series [10] relates to Mus musculus. The series can be described thus: Anticonvulsant activity in ip dosed Swiss albino mouse assessed as inhibition of maximal electroshock-induced seizures administered 30 mins before electroshock measured after 0.5 hrs post electroshock. The format is functional.
Series [11] concerns Mus musculus. The series can be described thus: Neurotoxicity in Swiss albino mouse assessed as inability of animal to maintain equilibrium on the rod for at least 1 min at 300 mg/kg, ip after 4 hrs by rotarod test. Type of series: toxicity, organism-based. Set-up: dose 300 mg/kg, route intraperitoneal. The conditions noted are these: in vivo.
In series [12] the test system is Mus musculus. The series can be described thus: Neurotoxicity in Swiss albino mouse assessed as inability of animal to maintain equilibrium on the rod for at least 1 min at 300 mg/kg, ip after 0.5 hrs by rotarod test. The format is toxicity, organism-based. Set-up: dose 300 mg/kg, route intraperitoneal. The conditions noted are these: in vivo.
Series [13] has as its system Mus musculus. The series can be described thus: Anticonvulsant activity in ip dosed Swiss albino mouse assessed as inhibition of subcutaneous picrotoxin-induced seizures administered 30 mins before PIC challenge measured after 0.5 hrs post PIC challenge. Type of series: functional.
Series [14] deals with Mus musculus. As to the kind of experiment: Anticonvulsant activity in ip dosed Swiss albino mouse assessed as inhibition of subcutaneous picrotoxin-induced seizures administered 30 mins before PIC challenge measured after 4 hrs post PIC challenge. Type of series: functional.
In series [15] the test system is Mus musculus. The series can be described thus: Anticonvulsant activity in ip dosed Swiss albino mouse assessed as inhibition of subcutaneous pentylenetetrazole-induced seizures administered 30 mins before PTZ challenge measured after 0.5 hrs post PTZ challenge. The format is functional.
Series [16] has as its system Mus musculus. The series can be described thus: Anticonvulsant activity in ip dosed Swiss albino mouse assessed as inhibition of subcutaneous strychnine-induced seizures administered 30 mins before STY challenge measured after 0.5 hrs post STY challenge. The format is functional.
In series [17] the test system is Mus musculus. The series can be described thus: Anticonvulsant activity in ip dosed Swiss albino mouse assessed as inhibition of subcutaneous strychnine-induced seizures administered 30 mins before STY challenge measured after 4 hrs post STY challenge. The format is functional.

Active and inactive are the calls of the source. No cut-off for these calls is given here.

For the compound `C/C(=N\NC(=S)NCCCC(=O)O)c1ccc([N+](=O)[O-])cc1`, the outcome with Mus musculus [1], in the series on Mus musculus [2], in the series with Mus musculus [3], in the series on Mus musculus [4], with Mus musculus [7] and in the series on Mus musculus [8] was inactive. Further, the outcome in the series on Mus musculus [9] was inactive. For the same compound, the Activity was 46% with Rattus norvegicus, 100 mg/kg with Mus musculus [5] and 100 mg/kg with Mus musculus [6].
Regarding `O=C1NC(=O)C(c2ccccc2)(c2ccccc2)N1` [PHENYTOIN], the outcome in the series on Mus musculus [1], in the series with Mus musculus [2], with Mus musculus [3], in the series on Mus musculus [4], in the series on Mus musculus [8] and with Mus musculus [9] was inactive. The Activity in the series on Mus musculus [10] was 30 mg/kg; in the series on Mus musculus [5], 100 mg/kg; in the series on Mus musculus [6] it was 100 mg/kg.
Consider `C/C(=N\NC(=S)NCCCC(=O)O)c1cccc(N)c1`, for which the outcome in the series with Mus musculus [1], in the series on Mus musculus [3], in the series on Mus musculus [4], in the series with Mus musculus [7] and with Mus musculus [8] was inactive. For the same compound, the Activity in the series with Rattus norvegicus was 27%; in the series on Mus musculus [11], “Non-toxic”; in the series with Mus musculus [12], “Non-toxic”; with Mus musculus [13], 300 mg/kg; in the series with Mus musculus [14] it was 300 mg/kg.
`O=C(O)CCCNC(=S)NN=C1CCCC1`: the Activity was 100 mg/kg with Mus musculus [15], 71% with Rattus norvegicus, “Non-toxic” in the series on Mus musculus [11] and “Non-toxic” in the series on Mus musculus [12]. Moreover, the outcome in the series with Mus musculus [1], with Mus musculus [2], in the series with Mus musculus [3], in the series with Mus musculus [4], with Mus musculus [7] and in the series on Mus musculus [9] was inactive.
For `O=C(O)CCCNC(=S)N/N=C/c1ccccc1O`, the Activity is 100 mg/kg in the series with Mus musculus [15]; 92% in the series on Rattus norvegicus; “Non-toxic” in the series with Mus musculus [11]; “Non-toxic” in the series on Mus musculus [12]; 100 mg/kg with Mus musculus [16]. In addition, the outcome in the series with Mus musculus [1], with Mus musculus [4] and with Mus musculus [7] was inactive.
With `CCC1(C)CC(=O)NC1=O` (centres undefined) [ETHOSUXIMIDE], the Activity was 300 mg/kg in the series with Mus musculus [15], “Non-toxic” in the series on Mus musculus [11] and “Non-toxic” in the series with Mus musculus [12]. The result in the series with Mus musculus [1], in the series with Mus musculus [2], in the series on Mus musculus [3], with Mus musculus [4], in the series on Mus musculus [7] and with Mus musculus [9] was inactive.
Regarding `C/C(=N\NC(=S)NCCCC(=O)O)c1ccccc1`, the Activity in the series on Mus musculus [15] was 300 mg/kg; with Rattus norvegicus, 90%; in the series on Mus musculus [11], “Non-toxic”; in the series on Mus musculus [12], “Non-toxic”; with Mus musculus [13], 100 mg/kg; with Mus musculus [14], 100 mg/kg. In addition, the outcome with Mus musculus [1], in the series on Mus musculus [3], in the series with Mus musculus [4] and with Mus musculus [7] was inactive.
Regarding `O=C(O)CCCNC(=S)NN=C(Cc1ccccc1)Cc1ccccc1`, the outcome in the series on Mus musculus [1], in the series with Mus musculus [2], in the series on Mus musculus [3], with Mus musculus [4], in the series with Mus musculus [7] and in the series on Mus musculus [8] was inactive. Besides, the Activity is 73% in the series on Rattus norvegicus, “Non-toxic” in the series with Mus musculus [12] and 300 mg/kg in the series on Mus musculus [6].
Turning to `O=C(O)CCCNC(=S)NN=C(c1ccccc1)c1ccccc1`, the result in the series on Mus musculus [1], in the series with Mus musculus [3], in the series on Mus musculus [4] and in the series with Mus musculus [8] was inactive. In addition, the Activity with Rattus norvegicus is 83%; in the series with Mus musculus [10], 300 mg/kg; with Mus musculus [11] it was “Non-toxic”; in the series on Mus musculus [12], “Non-toxic”.
Consider `CN(C)c1ccc(/C=N/NC(=S)NCCCC(=O)O)cc1`, for which the Activity was 88% with Rattus norvegicus; “Non-toxic” in the series with Mus musculus [11]; “Non-toxic” in the series with Mus musculus [12]; 300 mg/kg in the series with Mus musculus [16]; 300 mg/kg in the series with Mus musculus [17]. Further, the result with Mus musculus [4], in the series on Mus musculus [7] and in the series with Mus musculus [8] was inactive.
`Nc1nnc(-c2cccc(Cl)c2Cl)c(N)n1` [LAMOTRIGINE]: the Activity in the series with Mus musculus [15] was 30 mg/kg; in the series with Rattus norvegicus, 51%; in the series on Mus musculus [10], 30 mg/kg; with Mus musculus [5], 100 mg/kg; with Mus musculus [6], 100 mg/kg. Besides, the result with Mus musculus [1], in the series on Mus musculus [2], with Mus musculus [3], in the series with Mus musculus [4] and in the series on Mus musculus [9] was inactive.
Regarding `NNC(=S)NCCCC(=O)O`, the result in the series on Mus musculus [1], with Mus musculus [2], in the series with Mus musculus [3], with Mus musculus [4], in the series on Mus musculus [8] and in the series with Mus musculus [9] was inactive. For the same compound, the Activity worked out at 27% with Rattus norvegicus, 300 mg/kg with Mus musculus [10], 300 mg/kg in the series with Mus musculus [5] and 300 mg/kg in the series with Mus musculus [6].
For `O=C(O)CCCNC(=S)N/N=C/c1ccc([N+](=O)[O-])cc1`, the outcome with Mus musculus [1], with Mus musculus [3], in the series on Mus musculus [4], in the series on Mus musculus [7] and with Mus musculus [8] was inactive. In addition, the Activity is 85% in the series with Rattus norvegicus; “Non-toxic” with Mus musculus [11]; “Non-toxic” in the series on Mus musculus [12]; 300 mg/kg with Mus musculus [13]; 300 mg/kg in the series on Mus musculus [14].
In the case of `O=C(O)CCCNC(=S)NN=C1CCCCC1`, the result with Mus musculus [1], in the series on Mus musculus [3], with Mus musculus [4], with Mus musculus [7] and with Mus musculus [8] was inactive. Besides, the Activity is 78% with Rattus norvegicus; “Non-toxic” with Mus musculus [11]; “Non-toxic” with Mus musculus [12]; 300 mg/kg in the series with Mus musculus [13]; 300 mg/kg in the series on Mus musculus [14].
In the case of `O=C(O)CCCNC(=S)N/N=C(\c1ccccc1)c1ccc(Br)cc1`, the result in the series with Mus musculus [1], in the series with Mus musculus [4], in the series on Mus musculus [7] and with Mus musculus [8] was inactive. Besides, the Activity is 19% with Rattus norvegicus, “Non-toxic” in the series with Mus musculus [11], 100 mg/kg with Mus musculus [16] and 300 mg/kg with Mus musculus [5].
For `O=C(O)CCCNC(=S)N/N=C1\C(=O)Nc2ccccc21`, the Activity in the series on Mus musculus [15] was 30 mg/kg; in the series on Rattus norvegicus, 92%; in the series with Mus musculus [11] it was “Non-toxic”; in the series on Mus musculus [12], “Non-toxic”; with Mus musculus [13] it was 300 mg/kg; in the series with Mus musculus [14], 300 mg/kg. Also, the outcome with Mus musculus [1], with Mus musculus [3], in the series on Mus musculus [4] and with Mus musculus [7] was inactive.
Regarding `C/C(=N\NC(=S)NCCCC(=O)O)c1ccc(C)cc1`, the result with Mus musculus [1], with Mus musculus [2], in the series with Mus musculus [3], in the series with Mus musculus [4], in the series with Mus musculus [7] and in the series on Mus musculus [8] was inactive. In addition, the result with Mus musculus [9] was inactive. Also, the values for the Activity in the series on Rattus norvegicus, in the series with Mus musculus [11] and in the series with Mus musculus [12] were 80%, “Non-toxic” and “Non-toxic”, respectively.
